{"source": "ChEMBL document CHEMBL1201862", "about": "“PubChem BioAssay data set” (2004)", "assay_in_all_cases": "NCI anticancer screen, dose series, 48 h", "key": {"HCT-15": {"test_system": "HCT-15"}, "SK-MEL-28": {"test_system": "SK-MEL-28"}, "NCI-H226": {"test_system": "NCI-H226"}, "A549": {"test_system": "A549"}, "UACC-257": {"test_system": "UACC-257"}, "KM12": {"test_system": "KM12"}, "EKVX": {"test_system": "EKVX"}, "HT-29": {"test_system": "HT-29"}, "SW-620": {"test_system": "SW-620"}, "HOP-62": {"test_system": "HOP-62"}, "SK-MEL-5": {"test_system": "SK-MEL-5"}, "TK-10": {"test_system": "TK-10"}, "K562": {"test_system": "K562"}, "SNB-19": {"test_system": "SNB-19"}, "HL-60": {"test_system": "HL-60"}, "HCT-116": {"test_system": "HCT-116"}, "NCI-H460": {"test_system": "NCI-H460"}, "RPMI-8226": {"test_system": "RPMI-8226"}, "OVCAR-5": {"test_system": "OVCAR-5"}, "SF-539": {"test_system": "SF-539"}}, "note": "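Five compound concentrations were applied to cells in 96-well plates for 48 hours; endpoints were derived by simple linear interpolation of the resulting dose-response curve. The concentration for 50% growth inhibition is given as GI50.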 The source made the active and inactive calls. No stated cut-off is given here; in the data, active = GI50 up to about 1.1 µM and inactive = higher."}
{"smiles": "Cc1nc(Cl)c(C)c(Cl)n1", "values": [{"measurement": "GI50", "setting": "HCT-15", "result": "> 63.4", "unit": "µM"}, {"measurement": "GI50", "setting": "SK-MEL-28", "result": "> 93.3 µM (inactive)"}, {"measurement": "GI50", "setting": "NCI-H226", "result": "> 100 µM (inactive)"}, {"measurement": "GI50", "setting": "A549", "result": "> 100 µM (inactive)"}, {"measurement": "GI50", "setting": "UACC-257", "result": "> 100 µM (inactive)"}, {"measurement": "GI50", "setting": "KM12", "result": "> 59.6 µM (inactive)"}, {"measurement": "GI50", "setting": "EKVX", "result": "> 27 µM (inactive)"}, {"measurement": "GI50", "setting": "HT-29", "result": "> 44.7 µM (inactive)"}, {"measurement": "GI50", "setting": "SW-620", "result": "> 55.8 µM (inactive)"}, {"measurement": "GI50", "setting": "HOP-62", "result": "> 77.4 µM (inactive)"}, {"measurement": "GI50", "setting": "SK-MEL-5", "result": "> 59 µM (inactive)"}, {"measurement": "GI50", "setting": "TK-10", "result": "> 100 µM (inactive)"}, {"measurement": "GI50", "setting": "K562", "result": "18.3 µM (inactive)"}, {"measurement": "GI50", "setting": "SNB-19", "result": "> 100 µM (inactive)"}, {"measurement": "GI50", "setting": "HL-60", "result": "8.59 µM (inactive)"}, {"measurement": "GI50", "setting": "HCT-116", "result": "> 100 µM (inactive)"}, {"measurement": "GI50", "setting": "NCI-H460", "result": "> 100 µM (inactive)"}, {"measurement": "GI50", "setting": "RPMI-8226", "result": "> 100 µM (inactive)"}, {"measurement": "GI50", "setting": "OVCAR-5", "result": "> 100 µM (inactive)"}, {"measurement": "GI50", "setting": "SF-539", "result": "> 100 µM (inactive)"}]}
